Measurements as given in PubChem BioAssay AID1963972 (Molecular Pharmacology Branch, DTP, NCI, 2024).
One block for each compound: values may come before it.

Test system: 945468-187-T-J2-PDC spheroids viability
Assay: Anticancer human tumor 945468-187-T-J2-PDC patient-derived rectal carcinoma cell line growth inhibition [PI3K]
Settings: spheroids with HUVEC and MSC; for IC50: curve of first compound; for viability, T/C: stronger effect = lower value
Description: Combinatorial screen of targeted agents with the PI3K inhibitors inavolisib, alpelisib, duvelisib, and copanlisib in multi-cell type tumor spheroids
A high-throughput screen of multi-cell type tumor spheroids was designed to identify active combinations of targeted small molecules and PI3K pathway inhibitors. Complex spheroids include a stromal component modeled by human endothelial cells (HUVEC) and fibroblasts modeled by human mesenchymal stem cells (MSCs). The concentration ranges selected for each drug and investigational agent were based upon clinically achievable concentrations if the clinical Cmax of the agent was known.
Compounds. The drugs and investigational agents: inavolisib (NSC800729), alpelisib (NSC765974), duvelisib (NSC772469), copanlisib (NSC816437), ipatasertib (NSC767898), afuresertib (NSC778305), talazoparib (NSC767125), sapanisertib (NSC764658), selumetinib (NSC741078), tovorafenib (DAY101, NSC766906), vemurafenib (NSC761431), ravoxertinib (NSC781343), sotorasib (NSC818433), MRTX1133 (NSC 836407), abemaciclib (NSC 768073), palbociclib (NSC758247), venetoclax (NSC 766270), SY5609 (NSC837396), enzalutamide (NSC755605), and darolutamide (NSC825331), were obtained from the National Cancer Institute (NCI) Developmental Therapeutics Program Chemical Repository. The FDA-approved anticancer drug set is available from the NCI Developmental Therapeutics Program. […] The stock solutions were prepared in dimethyl sulfoxide (DMSO, Sigma-Aldrich, St. Louis, MO, cat. D2650) at 800-fold the tested concentration and stored at -70 degrees C prior to their use. All drugs and investigational agents were tested over a range starting from a high concentration at or near the clinical Cmax and decreasing in half-log increments. If the clinical Cmax for an agent had not been determined, the highest concentration tested was 10 microM.
Cell Culture. All cells were maintained in an incubator at 37 degrees C and 5% CO2 with 95% humidity. The PDC lines were cultured according to standard operating procedures established by the NCI PDMR (https://pdmr.cancer.gov/sops/default.htm). All PDCs were thawed and cultured in Matrigel-coated flasks prepared with a working solution of 1X Ham's F-12 nutrient mix, without supplementation (Invitrogen, Waltham, MA, cat. 11765054), 100 U/mL penicillin-streptomycin (Invitrogen, cat. 15140122), and 2.5% Matrigel (Corning Inc., Corning, NY, cat. 354248) for the first three passages. The 354836-022-R-J1-PDC, 475296-252-R-J1-PDC, and 997726-040-R-J2-PDC lines were cultured in 6A media, which includes advanced DMEM/F-12 (Thermo Fisher Scientific, cat. 12634028), 10 mM HEPES (Thermo Fisher Scientific, cat. 15630080), 1X GlutaMAX supplement (Thermo Fisher Scientific, cat. 35050061), 0.1 mg/mL primocin (InvivoGen, San Diego, CA, cat. ant-pm-2), 10% defined fetal bovine serum, heat inactivated (HyClone Laboratories Inc., Logan, UT, cat. SH30070.03HI), 50% L-WRN conditioned media (ATCC, cat. CRL-3276), 1.25 mM N-Acetyl-L-cysteine (Sigma-Aldrich, cat. A9165), 10 mM nicotinamide (Sigma-Aldrich, cat. N0636), 1X B-27 supplement (Thermo Fisher Scientific, cat. 17504044), 1X N-2 supplement (Thermo Fisher Scientific, cat. 17502048), and 10 microM Y-27632 dihydrochloride (Tocris Bioscience, Bristol, United Kingdom, cat. 1254). The 624824-186-R-J2-PDC line was cultured in 6C/Colon 1B media, which includes all 6A media components plus 50 ng/mL human EGF recombinant protein (Thermo Fisher Scientific, cat. PHG0311). […]

[1] = second compound 0.00316 µM, first compound 0.0316 µM
[2] = second compound 0.00316 µM, first compound 0.1 µM
[3] = second compound 0.01 µM, first compound 0.0316 µM
[4] = second compound 0.01 µM, first compound 0.1 µM
[5] = second compound 0.0316 µM, first compound 0.0316 µM
[6] = second compound 0.0316 µM, first compound 0.1 µM
[7] = second compound 0.1 µM, first compound 0.0316 µM
[8] = second compound 0.1 µM, first compound 0.1 µM
[9] = second compound 0.316 µM, first compound 0.0316 µM
[10] = second compound 0.316 µM, first compound 0.1 µM
[11] = second compound 1 µM, first compound 0.0316 µM
[12] = second compound 1 µM, first compound 0.1 µM
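Note: spheroids exposed to compounds for seven days before reading.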

IC50 (second compound 0.00316 µM): > 10 µM
IC50 (second compound 0.01 µM): > 10 µM
IC50 (second compound 0.0316 µM): > 10 µM
IC50 (second compound 0.1 µM): > 10 µM
IC50 (second compound 0.316 µM): > 10 µM
IC50 (second compound 1 µM): > 10 µM
Compound: CC(C)NCC(C(=O)N1CCN(c2ncnc3c2C(C)CC3O)CC1)c1ccc(Cl)cc1 (centres undefined) + CC(Nc1ccc2c(c1)OCCn1cc(N3C(=O)OCC3C(F)F)nc1-2)C(N)=O
viability, T/C [1]: 84.4%
viability, T/C [2]: 114%
viability, T/C (second compound 0.00316 µM, first compound 0.316 µM): 79.4%
viability, T/C (second compound 0.00316 µM, first compound 1 µM): 86.4%
viability, T/C (second compound 0.00316 µM, first compound 3.16 µM): 104%
viability, T/C (second compound 0.00316 µM, first compound 10 µM): 99.3%
viability, T/C [3]: 110%
viability, T/C [4]: 92.3%
viability, T/C (second compound 0.01 µM, first compound 0.316 µM): 96.2%
viability, T/C (second compound 0.01 µM, first compound 1 µM): 71.6%
viability, T/C (second compound 0.01 µM, first compound 3.16 µM): 97.7%
viability, T/C (second compound 0.01 µM, first compound 10 µM): 98.9%
viability, T/C [5]: 93.6%
viability, T/C [6]: 89.5%
viability, T/C (second compound 0.0316 µM, first compound 0.316 µM): 95.2%
viability, T/C (second compound 0.0316 µM, first compound 1 µM): 90.7%
viability, T/C (second compound 0.0316 µM, first compound 3.16 µM): 96.9%
viability, T/C (second compound 0.0316 µM, first compound 10 µM): 92.9%
viability, T/C [7]: 121%
viability, T/C [8]: 77.1%
viability, T/C (second compound 0.1 µM, first compound 0.316 µM): 82.8%
viability, T/C (second compound 0.1 µM, first compound 1 µM): 81.3%
viability, T/C (second compound 0.1 µM, first compound 3.16 µM): 89.9%
viability, T/C (second compound 0.1 µM, first compound 10 µM): 78.4%
viability, T/C [9]: 72.5%
viability, T/C [10]: 77.2%
viability, T/C (second compound 0.316 µM, first compound 0.316 µM): 76.2%
viability, T/C (second compound 0.316 µM, first compound 1 µM): 87%
viability, T/C (second compound 0.316 µM, first compound 3.16 µM): 84.2%
viability, T/C (second compound 0.316 µM, first compound 10 µM): 81.9%
viability, T/C [11]: 76.5%
viability, T/C [12]: 65.3%
viability, T/C (second compound 1 µM, first compound 0.316 µM): 75.6%
viability, T/C (second compound 1 µM, first compound 1 µM): 71.2%
viability, T/C (second compound 1 µM, first compound 3.16 µM): 68.5%
viability, T/C (second compound 1 µM, first compound 10 µM): 59.7%

IC50 (second compound 0.00316 µM): > 0.1 µM
IC50 (second compound 0.01 µM): > 0.1 µM
IC50 (second compound 0.0316 µM): > 0.1 µM
IC50 (second compound 0.1 µM): > 0.1 µM
IC50 (second compound 0.316 µM): > 0.1 µM
IC50 (second compound 1 µM): > 0.1 µM
Compound: Cn1ncnc1[C@H]1c2n[nH]c(=O)c3cc(F)cc(c23)N[C@@H]1c1ccc(F)cc1 + CC(Nc1ccc2c(c1)OCCn1cc(N3C(=O)OCC3C(F)F)nc1-2)C(N)=O
viability, T/C (second compound 0.00316 µM, first compound 0.000316 µM): 103%
viability, T/C (second compound 0.00316 µM, first compound 0.001 µM): 114%
viability, T/C (second compound 0.00316 µM, first compound 0.00316 µM): 105%
viability, T/C (second compound 0.00316 µM, first compound 0.01 µM): 86.6%
viability, T/C [1]: 92.6%
viability, T/C [2]: 99.7%
viability, T/C (second compound 0.01 µM, first compound 0.000316 µM): 131%
viability, T/C (second compound 0.01 µM, first compound 0.001 µM): 99.1%
viability, T/C (second compound 0.01 µM, first compound 0.00316 µM): 107%
viability, T/C (second compound 0.01 µM, first compound 0.01 µM): 84.5%
viability, T/C [3]: 110%
viability, T/C [4]: 123%
viability, T/C (second compound 0.0316 µM, first compound 0.000316 µM): 129%
viability, T/C (second compound 0.0316 µM, first compound 0.001 µM): 139%
viability, T/C (second compound 0.0316 µM, first compound 0.00316 µM): 100%
viability, T/C (second compound 0.0316 µM, first compound 0.01 µM): 98.8%
viability, T/C [5]: 96.3%
viability, T/C [6]: 123%
viability, T/C (second compound 0.1 µM, first compound 0.000316 µM): 87.6%
viability, T/C (second compound 0.1 µM, first compound 0.001 µM): 112%
viability, T/C (second compound 0.1 µM, first compound 0.00316 µM): 96.8%
viability, T/C (second compound 0.1 µM, first compound 0.01 µM): 89.1%
viability, T/C [7]: 118%
viability, T/C [8]: 102%
viability, T/C (second compound 0.316 µM, first compound 0.000316 µM): 82.3%
viability, T/C (second compound 0.316 µM, first compound 0.001 µM): 103%
viability, T/C (second compound 0.316 µM, first compound 0.00316 µM): 100%
viability, T/C (second compound 0.316 µM, first compound 0.01 µM): 88%
viability, T/C [9]: 99.7%
viability, T/C [10]: 99.6%
viability, T/C (second compound 1 µM, first compound 0.000316 µM): 77.1%
viability, T/C (second compound 1 µM, first compound 0.001 µM): 84.3%
viability, T/C (second compound 1 µM, first compound 0.00316 µM): 75.9%
viability, T/C (second compound 1 µM, first compound 0.01 µM): 84.9%
viability, T/C [11]: 79.2%
viability, T/C [12]: 77.2%
